Several values for one entry are separate records, joined by “and”; a condition that tells them apart may be missing. Identical values can stand only once. Toxic doses and inconclusive results are not listed.
Tested on: CD2F1 mice, L1210 leukemia ip, survival T/C
Assay: NCI In Vivo Anticancer Drug Screen. Data for tumor model L1210 Leukemia (intraperitoneal) in CD2F1 (CDF1) mice
Conditions: higher = longer survival
Method in brief: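 Activity against a transplanted murine tumor was judged by comparing the compound group with a vehicle group. The outcome in the treated animals was divided by that in the controls.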

[1] = endpoint: mean survival time, dose: 100.0 mg/kg/injection, schedule: Q04DX003 (ip), vehicle: alcohol
[2] = endpoint: mean survival time, dose: 200.0 mg/kg/injection, schedule: Q04DX003 (ip), vehicle: alcohol
[3] = endpoint: mean survival time, dose: 100.0 mg/kg/injection, schedule: Q01DX009 (ip), vehicle: saline with Tween-80
[4] = endpoint: mean survival time, dose: 200.0 mg/kg/injection, schedule: Q01DX009 (ip), vehicle: saline with Tween-80
[5] = endpoint: mean survival time, dose: 400.0 mg/kg/injection, schedule: Q01DX009 (ip), vehicle: saline with Tween-80

## Nc1cc2c(nnn2C2OC(CO)C(O)C2O)c(=O)[nH]1 (stereo not drawn)
endpoint: mean survival time, dose: 12.5 mg/kg/injection, schedule: Q01DX005 (ip), vehicle: distilled water + Tween-80
  T/C: 98 % of control
endpoint: mean survival time, dose: 25.0 mg/kg/injection, schedule: Q01DX005 (ip), vehicle: distilled water + Tween-80
  T/C: 98 % of control
endpoint: mean survival time, dose: 50.0 mg/kg/injection, schedule: Q01DX005 (ip), vehicle: distilled water + Tween-80
  T/C: 102 % of control
endpoint: mean survival time, dose: 100.0 mg/kg/injection, schedule: Q01DX005 (ip), vehicle: distilled water + Tween-80
  T/C: 98 % of control
endpoint: mean survival time, dose: 200.0 mg/kg/injection, schedule: Q01DX005 (ip), vehicle: distilled water + Tween-80
  T/C: 88 % of control

## O=c1cc[nH]c2cc(Cl)ccc12
[1]
  T/C: 89 % of control
[2]
  T/C: 96 % of control

## CCCCC/C=C\C/C=C\CCCCCCCC(=O)OCC1CNP(=O)(N(CCCl)CCCl)O1 (stereo not drawn)
endpoint: mean survival time, dose: 6.25 mg/kg/injection, schedule: Q01DX009 (ip), vehicle: water
  T/C: 103 % of control
endpoint: mean survival time, dose: 12.5 mg/kg/injection, schedule: Q01DX009 (ip), vehicle: water
  T/C: 95 % of control
endpoint: mean survival time, dose: 23.3 mg/kg/injection, schedule: Q01DX001 (ip), vehicle: DMSO
  T/C: 101 % of control
endpoint: mean survival time, dose: 25.0 mg/kg/injection, schedule: Q01DX009 (ip), vehicle: water
  T/C: 95 % of control
endpoint: mean survival time, dose: 38.9 mg/kg/injection, schedule: Q01DX001 (ip), vehicle: DMSO
  T/C: 98 % of control
endpoint: mean survival time, dose: 50.0 mg/kg/injection, schedule: Q01DX009 (ip), vehicle: water
  T/C: 97 % of control
endpoint: mean survival time, dose: 64.8 mg/kg/injection, schedule: Q01DX001 (ip), vehicle: DMSO
  T/C: 98 % of control
endpoint: mean survival time, dose: 100.0 mg/kg/injection, schedule: Q01DX009 (ip), vehicle: water
  T/C: 103 % of control
endpoint: mean survival time, dose: 108.0 mg/kg/injection, schedule: Q01DX001 (ip), vehicle: DMSO
  T/C: 97 % of control
endpoint: mean survival time, dose: 180.0 mg/kg/injection, schedule: Q01DX001 (ip), vehicle: DMSO
  T/C: 98 % of control
endpoint: mean survival time, dose: 200.0 mg/kg/injection, schedule: Q01DX009 (ip), vehicle: water
  T/C: 103 % of control
endpoint: mean survival time, dose: 300.0 mg/kg/injection, schedule: Q01DX001 (ip), vehicle: DMSO
  T/C: 97 % of control

## CCOC(CNC(=O)NC1CCCCC1)OCC
[3]
  T/C: 113 % of control
endpoint: mean survival time, dose: 100.0 mg/kg/injection, schedule: Q04DX003 (ip), vehicle: saline with Tween-80
  T/C: 103 % of control
[4]
  T/C: 104 % of control
endpoint: mean survival time, dose: 200.0 mg/kg/injection, schedule: Q04DX003 (ip), vehicle: saline with Tween-80
  T/C: 104 % of control
[5]
  T/C: 108 % of control
endpoint: mean survival time, dose: 400.0 mg/kg/injection, schedule: Q04DX003 (ip), vehicle: saline with Tween-80
  T/C: 93 % of control

## NC(=O)C1=CC2C3C=CC2(O)C(=O)OC3O1 (stereo not drawn)
endpoint: median survival time, dose: 1.9 mg/kg/injection, schedule: Q01DX009 (ip), vehicle: Klucel (hydroxypropylcellulose) (HPC)
  T/C: 108 % of control
endpoint: median survival time, dose: 3.75 mg/kg/injection, schedule: Q01DX009 (ip), vehicle: Klucel (hydroxypropylcellulose) (HPC)
  T/C: 120 % of control
endpoint: median survival time, dose: 7.5 mg/kg/injection, schedule: Q01DX009 (ip), vehicle: Klucel (hydroxypropylcellulose) (HPC)
  T/C: 118 % of control
endpoint: median survival time, dose: 15.0 mg/kg/injection, schedule: Q01DX009 (ip), vehicle: Klucel (hydroxypropylcellulose) (HPC)
  T/C: 117 % of control
endpoint: median survival time, dose: 30.0 mg/kg/injection, schedule: Q01DX009 (ip), vehicle: Klucel (hydroxypropylcellulose) (HPC)
  T/C: 121 % of control and 110 % of control

## CC(=O)OC(CC(=O)CC(O)(C(F)(F)F)C(F)(F)F)(C(F)(F)F)C(F)(F)F
endpoint: mean survival time, dose: 6.25 mg/kg/injection, schedule: Q04DX003 (ip), vehicle: saline
  T/C: 95 % of control
endpoint: mean survival time, dose: 12.5 mg/kg/injection, schedule: Q04DX003 (ip), vehicle: saline
  T/C: 98 % of control
endpoint: mean survival time, dose: 25.0 mg/kg/injection, schedule: Q04DX003 (ip), vehicle: saline
  T/C: 96 % of control

## COc1ccc(C=Nc2ccccc2)cc1
[3]
  T/C: 95 % of control
[4]
  T/C: 89 % of control
[5]
  T/C: 89 % of control

## Cc1cc(Oc2ccc(Cl)cc2NC(=O)Nc2ccc(Cl)c(Cl)c2)c(S(=O)(=O)O)cc1Cl
endpoint: mean survival time, dose: 100.0 mg/kg/injection, schedule: Q01DX001 (ip), vehicle: acetone
  T/C: 94 % of control
endpoint: mean survival time, dose: 200.0 mg/kg/injection, schedule: Q01DX001 (ip), vehicle: acetone
  T/C: 94 % of control
endpoint: mean survival time, dose: 400.0 mg/kg/injection, schedule: Q01DX001 (ip), vehicle: acetone
  T/C: 93 % of control

## O=C(COc1ccc(F)cc1F)OC(=O)COc1ccc(F)cc1F
endpoint: mean survival time, dose: 100.0 mg/kg/injection, schedule: Q04DX002 (ip), vehicle: saline with Tween-80
  T/C: 92 % of control
endpoint: mean survival time, dose: 200.0 mg/kg/injection, schedule: Q04DX002 (ip), vehicle: saline with Tween-80
  T/C: 89 % of control
endpoint: mean survival time, dose: 400.0 mg/kg/injection, schedule: Q04DX002 (ip), vehicle: saline with Tween-80
  T/C: 89 % of control

## CN(C)c1ncnc2c1ncn2-c1cccc(-n2cnc3c(N(C)C)ncnc32)c1
endpoint: mean survival time, dose: 1.25 mg/kg/injection, schedule: Q01DX005 (ip), vehicle: other
  T/C: 103 % of control
endpoint: mean survival time, dose: 2.5 mg/kg/injection, schedule: Q01DX005 (ip), vehicle: other
  T/C: 88 % of control
endpoint: mean survival time, dose: 5.0 mg/kg/injection, schedule: Q01DX005 (ip), vehicle: other
  T/C: 92 % of control
endpoint: mean survival time, dose: 10.0 mg/kg/injection, schedule: Q01DX005 (ip), vehicle: other
  T/C: 92 % of control
endpoint: mean survival time, dose: 20.0 mg/kg/injection, schedule: Q01DX005 (ip), vehicle: other
  T/C: 88 % of control

## CC(C)NC(=O)/C=C/C(=O)O
endpoint: mean survival time, dose: 100.0 mg/kg/injection, schedule: Q04DX003 (ip), vehicle: saline
  T/C: 100 % of control
endpoint: mean survival time, dose: 200.0 mg/kg/injection, schedule: Q04DX003 (ip), vehicle: saline
  T/C: 100 % of control
endpoint: mean survival time, dose: 400.0 mg/kg/injection, schedule: Q04DX003 (ip), vehicle: saline
  T/C: 100 % of control

## Cc1nc2c(c(-c3ccccc3)n1)Cc1c(ccc3ccccc13)O2
endpoint: mean survival time, dose: 100.0 mg/kg/injection, schedule: Q01DX001 (ip), vehicle: saline
  T/C: 92 % of control
endpoint: mean survival time, dose: 200.0 mg/kg/injection, schedule: Q01DX001 (ip), vehicle: saline
  T/C: 98 % of control
endpoint: mean survival time, dose: 400.0 mg/kg/injection, schedule: Q01DX001 (ip), vehicle: saline
  T/C: 103 % of control

## O=c1ccn(Cc2ccc([N+](=O)[O-])cc2)c(=O)[nH]1
endpoint: mean survival time, dose: 100.0 mg/kg/injection, schedule: Q01DX001 (ip), vehicle: saline with Tween-80
  T/C: 94 % of control
endpoint: mean survival time, dose: 200.0 mg/kg/injection, schedule: Q01DX001 (ip), vehicle: saline with Tween-80
  T/C: 90 % of control
endpoint: mean survival time, dose: 400.0 mg/kg/injection, schedule: Q01DX001 (ip), vehicle: saline with Tween-80
  T/C: 98 % of control

## O=C(OCC1OC([Se])C(OC(=O)c2ccccc2)C(OC(=O)c2ccccc2)C1OC(=O)c1ccccc1)c1ccccc1.[CH3][Sb][CH3] (stereo not drawn)
endpoint: mean survival time, dose: 50.0 mg/kg/injection, schedule: Q01DX009 (ip), vehicle: Klucel (hydroxypropylcellulose) (HPC)
  T/C: 100 % of control
endpoint: mean survival time, dose: 100.0 mg/kg/injection, schedule: Q01DX009 (ip), vehicle: Klucel (hydroxypropylcellulose) (HPC)
  T/C: 103 % of control
endpoint: mean survival time, dose: 200.0 mg/kg/injection, schedule: Q01DX009 (ip), vehicle: Klucel (hydroxypropylcellulose) (HPC)
  T/C: 100 % of control

## COc1ccc(C2N(C)CCCN2C)c(OC)c1
endpoint: mean survival time, dose: 6.25 mg/kg/injection, schedule: Q01DX009 (ip), vehicle: saline sonified
  T/C: 103 % of control
endpoint: mean survival time, dose: 6.25 mg/kg/injection, schedule: Q04DX003 (ip), vehicle: saline sonified
  T/C: 101 % of control
endpoint: mean survival time, dose: 12.5 mg/kg/injection, schedule: Q01DX009 (ip), vehicle: saline sonified
  T/C: 103 % of control
endpoint: mean survival time, dose: 12.5 mg/kg/injection, schedule: Q04DX003 (ip), vehicle: saline sonified
  T/C: 108 % of control
endpoint: mean survival time, dose: 25.0 mg/kg/injection, schedule: Q01DX009 (ip), vehicle: saline sonified
  T/C: 98 % of control
endpoint: mean survival time, dose: 25.0 mg/kg/injection, schedule: Q04DX003 (ip), vehicle: saline sonified
  T/C: 100 % of control

## COC(=O)c1cccc2c1/C(=N/NC(N)=S)c1ccccc1-2
endpoint: mean survival time, dose: 50.0 mg/kg/injection, schedule: Q01DX001 (ip), vehicle: carboxymethylcellulose (CMC)
  T/C: 102 % of control
endpoint: mean survival time, dose: 100.0 mg/kg/injection, schedule: Q01DX001 (ip), vehicle: carboxymethylcellulose (CMC)
  T/C: 98 % of control
endpoint: mean survival time, dose: 200.0 mg/kg/injection, schedule: Q01DX001 (ip), vehicle: carboxymethylcellulose (CMC)
  T/C: 102 % of control
endpoint: mean survival time, dose: 400.0 mg/kg/injection, schedule: Q01DX001 (ip), vehicle: carboxymethylcellulose (CMC)
  T/C: 102 % of control

## O=C(Nc1nncs1)c1cccs1
endpoint: mean survival time, dose: 12.5 mg/kg/injection, schedule: Q01DX009 (ip), vehicle: saline with Tween-80
  T/C: 95 % of control and 104 % of control
endpoint: mean survival time, dose: 25.0 mg/kg/injection, schedule: Q01DX009 (ip), vehicle: saline with Tween-80
  T/C: 93 % of control and 103 % of control
endpoint: mean survival time, dose: 50.0 mg/kg/injection, schedule: Q01DX009 (ip), vehicle: saline with Tween-80
  T/C: 93 % of control and 94 % of control
[3]
  T/C: 92 % of control and 100 % of control
[4]
  T/C: 118 % of control
[5]
  T/C: 172 % of control

## Cc1ccc(S(=O)(=O)Nc2ccc([N+](=O)[O-])cc2OS(=O)(=O)c2ccc(C)cc2)cc1
[1]
  T/C: 100 % of control
[2]
  T/C: 95 % of control
endpoint: mean survival time, dose: 400.0 mg/kg/injection, schedule: Q04DX003 (ip), vehicle: alcohol
  T/C: 92 % of control
